Data published in ChEMBL document CHEMBL1201862, “PubChem BioAssay data set” (2004).
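Compound exposure: 48 hours, 5 concentrations, 96-well plates. Abbreviation: GI50, concentration required for 50% inhibition of growth.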 Calls of active or inactive are those of the source. Rule as the data show it: active = GI50 up to about 1.1 µM and inactive = higher.

Assays:
Assay in all cases: DTP human tumour cell line panel, 48 h
MOLT-4 = test system: MOLT-4
MDA-MB-231 = test system: MDA-MB-231
RPMI-8226 = test system: RPMI-8226
PC-3 = test system: PC-3
NCI-H522 = test system: NCI-H522
KM12 = test system: KM12
OVCAR-5 = test system: OVCAR-5
Malme-3M = test system: Malme-3M
OVCAR-4 = test system: OVCAR-4
LOX IMVI = test system: LOX IMVI
HCT-15 = test system: HCT-15
SK-MEL-2 = test system: SK-MEL-2
HT-29 = test system: HT-29
DU-145 = test system: DU-145
SN12C = test system: SN12C
SNB-75 = test system: SNB-75
K562 = test system: K562
CCRF-CEM = test system: CCRF-CEM
U-251 = test system: U-251
SK-OV-3 = test system: SK-OV-3

Structure (SMILES)	GI50 (MOLT-4)	GI50 (MDA-MB-231)	GI50 (RPMI-8226)	GI50 (PC-3)	GI50 (NCI-H522)	GI50 (KM12)	GI50 (OVCAR-5)	GI50 (Malme-3M)	GI50 (OVCAR-4)	GI50 (LOX IMVI)	GI50 (HCT-15) [µM]	GI50 (SK-MEL-2)	GI50 (HT-29)	GI50 (DU-145)	GI50 (SN12C)	GI50 (SNB-75)	GI50 (K562)	GI50 (CCRF-CEM)	GI50 (U-251)	GI50 (SK-OV-3)
Nc1ncc(C=O)c(NCC2(CO)CCC2)n1	30.5 µM (inactive)	45.8 µM (inactive)	8.04 µM (inactive)	82.4 µM (inactive)	35.6 µM (inactive)	83.9 µM (inactive)	44.8 µM (inactive)	77.4 µM (inactive)	48.9 µM (inactive)	32.1 µM (inactive)	71.1	19.3 µM (inactive)	64 µM (inactive)	33 µM (inactive)	> 100 µM (inactive)	66.1 µM (inactive)	36.4 µM (inactive)	38.4 µM (inactive)	35.6 µM (inactive)	
CCNCC(O)c1ccc(N)c([N+](=O)[O-])c1 (configuration not stated)	> 100 µM (inactive)	> 100 µM (inactive)	> 100 µM (inactive)	> 100 µM (inactive)	> 100 µM (inactive)		> 100 µM (inactive)		21.4 µM (inactive)	> 100 µM (inactive)	> 100	> 100 µM (inactive)	> 100 µM (inactive)	> 100 µM (inactive)	> 100 µM (inactive)	> 100 µM (inactive)	> 100 µM (inactive)	> 100 µM (inactive)	> 100 µM (inactive)	> 100 µM (inactive)
N=C(N)NCC1CCCCCCN1 (configuration not stated)	> 100 µM (inactive)	> 100 µM (inactive)	> 100 µM (inactive)	> 100 µM (inactive)	> 100 µM (inactive)	> 100 µM (inactive)	> 100 µM (inactive)	> 100 µM (inactive)	> 100 µM (inactive)		> 100	> 100 µM (inactive)	> 100 µM (inactive)	> 100 µM (inactive)	> 100 µM (inactive)	> 100 µM (inactive)	> 100 µM (inactive)	> 100 µM (inactive)	> 100 µM (inactive)	> 100 µM (inactive)
CC(=O)Nc1c(S(=O)(=O)c2ccccc2)c(C)c(C)n1CCN(C)C	> 100 µM (inactive)	> 100 µM (inactive)	> 100 µM (inactive)	> 100 µM (inactive)	> 100 µM (inactive)	> 100 µM (inactive)	> 100 µM (inactive)	> 100 µM (inactive)	> 100 µM (inactive)		> 100	> 100 µM (inactive)	> 100 µM (inactive)	> 100 µM (inactive)	> 100 µM (inactive)	> 100 µM (inactive)	> 100 µM (inactive)	> 100 µM (inactive)	> 100 µM (inactive)	> 100 µM (inactive)
CN(C)c1cccc(NC2=NCCO2)c1	46.7 µM (inactive)	51.4 µM (inactive)	65.5 µM (inactive)	31 µM (inactive)	80.2 µM (inactive)	40.5 µM (inactive)	> 100 µM (inactive)	33.9 µM (inactive)	> 100 µM (inactive)	31.9 µM (inactive)	45.1	14.9 µM (inactive)	19.2 µM (inactive)	> 100 µM (inactive)	52.5 µM (inactive)	41.2 µM (inactive)	30.8 µM (inactive)	33 µM (inactive)	83.8 µM (inactive)	
C=CN(C=C)C(=O)Cn1cc(-c2ccccc2)nn1	> 100 µM (inactive)	> 100 µM (inactive)	> 100 µM (inactive)	> 100 µM (inactive)	> 100 µM (inactive)	> 100 µM (inactive)	> 100 µM (inactive)	> 100 µM (inactive)	31.1 µM (inactive)	> 100 µM (inactive)	> 100	> 100 µM (inactive)	> 100 µM (inactive)	> 100 µM (inactive)	> 100 µM (inactive)	> 100 µM (inactive)	> 100 µM (inactive)	> 100 µM (inactive)	> 100 µM (inactive)	
CCc1nc(N)nc(N)c1-c1ccc(Cl)c(/N=N/N(C)C)c1	26.5 µM (inactive)	48.8 µM (inactive)	19 µM (inactive)	24.5 µM (inactive)	27.7 µM (inactive)	28.4 µM (inactive)	> 82 µM (inactive)		25.1 µM (inactive)	24.5 µM (inactive)	17.1	32.2 µM (inactive)	18.7 µM (inactive)	55.7 µM (inactive)	67.8 µM (inactive)	61 µM (inactive)	8.04 µM (inactive)	27 µM (inactive)	34.5 µM (inactive)	> 89.3 µM (inactive)
